Four compounds from BindingDB's records for doi:10.1016/j.bmcl.2018.08.039 (National Institutes of Health, 2018) can be followed below.

The test concerns the target Bromodomain-containing protein 4 (Homo sapiens, UniProt O60885). Description: Displacement of biotinylated acetylated peptide from recombinant human partial length BRD4 long isoform bromodomain 1/2 (N44 to E460 residues) expressed in Escherichia coli BL21 measured after 1 hr by Bromoscan method.
As to `Cc1noc(C)c1-c1ccc2nc(Cl)nc(NCc3cccc(Cl)c3)c2c1`, the Kd (usually the concentration at which binding is half-saturated) was 0.98 µM.

As for `Cc1noc(C)c1-c1ccc2nc(-n3cc(CCO)cn3)nc(NCc3cccc(Cl)c3)c2c1`, the Kd stood at 0.14 µM.

For `Cc1noc(C)c1-c1ccc2nc(-c3ccc(CO)nc3)nc(NCc3cccc(Cl)c3)c2c1`, the Kd is 0.25 µM.

As to `CNc1nc(NCc2cccc(Cl)c2)c2cc(-c3c(C)noc3C)ccc2n1`, the Kd came out at 2.9 µM.
